We go through seven compounds from patent US7943309B2, “HLA alleles associated with adverse drug reactions and methods for detecting such” (Pharmigene Inc., priority 2006, dated 2011).

Several values for one entry are separate records, joined by “and”; a condition that tells them apart may be missing. Equal values may be shown once.

The subject of one data set is HLA-B*1502. Description: Association of HLA-B*1502 with drug-induced SJS/TEN (HLA genotyping, case-control). On the set-up: species or system human. Conditions: for number of HLA-B*1502-positive SJS/TEN patients who received the drug: among 17 carriers of 53 SJS/TEN patients who received other drugs. As to the method: 73 tegretol-tolerant patients were included as controls. […] All of these patients were subjected to genotyping. […] SSO (DYNAL Biotech Ltd.; Bromborough, UK). […] Marcel G. J. […] To some patients, SNP genotyping was performed using high throughput MALDI-TOF mass spectrometry. Briefly, primers and probes were designed using the Spectro[…] software (Sequenom, San Diego, Calif., USA). Multiplex polymerase chain reactions (PCR) were performed, the unincorporated dNTPs were dephosphorylated using the shrimp alkaline phosphatase (Hoffman-LaRoche, Basel, Switzerland), followed by primer extension. The purified primer extension reaction was spotted onto a 384-element silicon chip (SpectroCHIP, Sequenom), analyzed using a Bruker Biflex III MALDI-TOF SpectroREADER mass spectrometer (Sequenom) and spectra processed with […] (Sequenom).

The subject of a further data set is HLA-Cw*0801. As to the kind of experiment: Marker of B*1502 ancestral haplotype and ADRs: HLA-Cw*0801. The source says: (§1) All of these patients were subjected to genotyping. Briefly, reagents for performing a reverse line blot assay using sequence-specific oligonucleotide (SSO) were purchased from DYNAL Biotech Ltd. (Bromborough, UK). PCR products were generated using biotinylated primers for the second and the third exons of the HLA class I or class II loci, and then hybridized to a line blot of SSO of probes immobilized on a nylon membrane. The presence of biotinylated PCR product bound to a specific probe is detected using streptavidin-horseradish peroxidase (HRP) and a chromogenic, soluble substrate to produce a blue “line” at the position of the positive probe. The probe reactivity pattern was interpreted by the genotyping software Dynal RELI™ SSO (DYNAL Biotech Ltd.; Bromborough, UK). Potential ambiguities were further resolved by sequence-based typing and DNA sequencing performed according to the IHWG Technical Manual (International Histocompatibility Working Group), see Genomic Analysis of the Human MHC DNABased Typing for HLA Alleles and Linked Polymorphisms. Marcel G. J. Tilanus, Editor in Chief, ISBN No. 0-945278-02-0.

The test system of a further data set is HLA-Cw*0806. Description: Marker of B*1502 ancestral haplotype and ADRs: HLA-Cw*0806.
Description: as §1

The nature of data set [1]: Clinical phenotype of drug-induced cutaneous ADR in individual patients. Format: in vivo, human. The procedure: A total of 238 ADR patients (Mongoloids or Mongoloid descendents) were recruited either from Chang Gung Memorial Hospital or from several other medical centers throughout Taiwan for this study. Their drug-taking history including dosage and duration, and the phenotypes of ADRs were recorded. The diagnostic criteria of clinical morphology were defined according to Roujeau, J. Invest Dermatol., 102(6):28S-30S, 1994. […] SJS, overlap SJS-TEN and TEN are collectively referred to as SJS/TEN.

The nature of data set [2]: Onset of allopurinol-induced ADR symptoms. It is filed as in vivo, human.
A further data set concerns Cw*0302. The conditions noted are these: number (%).
The subject of another data set is A*3303. The conditions noted are these: number (%).
The subject of a further data set is DRB1*0301. The conditions noted are these: number (%).
The subject of another data set is HLA-B*5801. As to the kind of experiment: Association of HLA-B*5801 with allopurinol-induced severe ADRs (HSS, SJS, TEN). Conditions: for B*5801 frequency, Allopurinol-tolerant: n = 98.
The next data set relates to CBZ-reactive T cells. Description: Cross-reactivity of CBZ-reactive T cells (interferon-γ ELISPOT). It is filed as cell-based, human. Conditions: T cells of HLA-B*1502 patients with CBZ-induced SJS/TEN, autologous B cells, 24 hours. The source says: Two patients having CBZ-induced SJS/TEN were recruited from Chang Gung Memorial Hospital. […] Genomic DNAs were extracted from the patients using […] DNA purification system (Gentra systems, Minnesota, USA). The HLA-B alleles were verified using sequence-specific oligonucleotide reverse line blots (DYNAL Biotech Ltd., Bromborough, U.K.).
Peripheral blood mononuclear cells (PBMCs) were isolated from the patients by Ficoll-Isopaque (Pharmacia Fine Chemicals, Piscataway, N.J.) density gradient centrifugation. A portion of the PBMCs were transformed by Epstein-Bar virus to establish autologous B-cell lines.
T cells reactive to CBZ were expanded as described below. PBMCs prepared from the patients were cultured in complete RPMI medium containing 10% heat-inactivated human serum, IL-2 (25 U/ml), and CBZ (25 μg/ml)(Sigma) in a 37° C., 5% CO2 incubator for 7 days. The T cells were then expanded by co-culturing with irradiated (50Gy) autologous B cells in the presence of CBZ for 10 days. After 2 cycles of the above co-culturing procedure, the CBZ-activated T cells were collected and subjected to ELISPOT assays (eBioscience).
The CBZ-reactive T cells were tested for their cross-reactivity to compounds e.g., CBZ 10, 11-epoxide, Oxcarbazepine (brand name: trileptal), Licarbazepine, and sunlindac. Briefly, T lymphocytes (5×10^3 cells) were mixed with autologous B cells (5×10^4 cells) in 200 μl RPMI medium containing 10% FBS in the presence or absence of a test compound. The cells were then incubated for 24 hours in the wells of an ELISPOT plate coated with anti-interferon γ antibodies (Millipore). After incubation, the supernatant of the cell culture was collected and interferon-γ contained therein was detected using antibody-mediated methods known in the art.

Another data set concerns HLA-B*4601. As to the kind of experiment: Association of HLA-B*4601 with CBZ-induced milder cutaneous ADRs (HLA genotyping). Further details: species or system human. The source says:
73 tegretol-tolerant patients were included as controls. Volunteers from the general population of Taiwanese (n=94; age range: 20 to 80 years) were also recruited.
All of these patients were subjected to genotyping.
In contrast, the allele was only found in 26% (19/73) of the CBZ-tolerant group.

A further data set relates to HLA-A*1101.
Description: as §1

A further data set has as its system HLA-DRB1*1202.
Description: as §1

Where [3] appears, read: relative to the allopurinol-tolerant group.

As for `Oc1ncnc2[nH]ncc12` [allopurinol, Allopurinol], the “number of HLA-B*1502-positive SJS/TEN patients who received the drug” value in the data set on HLA-B*1502 came out at 2. Also, in the data set on HLA-B*1502 (n = 17, carriers, number (%)), the “HLA-B*1502 frequency, Allopurinol SJS/TEN” value was 1 (5.8%). Moreover, the “HLA-Cw*0801 frequency, Allopurinol SJS/TEN” value with HLA-Cw*0801 (n = 17, number (%)) is given as 2 (11.7%). For the same compound, the “HLA-Cw*0806 frequency, Allopurinol SJS/TEN” value with HLA-Cw*0806 (n = 17, number (%)) is 0 (0%). The Phenotype entry in data set [1] (individual patient, cutaneous ADR to the suspected drug) was “SJS (11×) and SJS and vasculitis on leg and SJS, and lichenoid and TEN”; in data set [1] (individual patient, cutaneous ADR to the suspected drug, listed as Allopurinol), “SJS”; in data set [1] (individual patient, cutaneous ADR to the suspected drug, listed as alloprinol) it was “SJS”. Also, the “second attack after re-exposure to allopurinol” value in [2] (2 patients) is at most 2 days. Besides, the “onset of HSS symptoms after start of allopurinol exposure” value in [2] (all of the 31 patients) is on record as at most 2 months. For the same compound, the “Cw*0302 frequency, Allopurinol-ADRs” value with Cw*0302 (n = 31) is 29 (93.5%). The “Cw*0302 frequency, Allopurinol-tolerant” value in the data set with Cw*0302 (n = 98) is recorded as 15 (15.3%). Also, in the data set with A*3303 (n = 31), the “A*3303 frequency, Allopurinol-ADRs” value is recorded as 20 (64.5%). The “A*3303 frequency, Allopurinol-tolerant” value with A*3303 (n = 98) is given as 18 (18.4%). The “DRB1*0301 frequency, Allopurinol-ADRs” value in the data set on DRB1*0301 (n = 31) was 21 (67.7%). Further, in the data set with DRB1*0301 (n = 98), the “DRB1*0301 frequency, Allopurinol-tolerant” value is 14 (14.3%). Moreover, in the data set on HLA-B*5801, the “sensitivity of HLA-B*5801 for allopurinol-induced severe ADRs” value stood at 100%. Besides, in the data set on HLA-B*5801, the “specificity of HLA-B*5801 for allopurinol-induced severe ADRs” value was 84%. The “Odds ratio (Allopurinol-ADRs/Normal), B*5801” value in the data set with HLA-B*5801 (31 ADR patients vs 93 normal subjects) was found to be 241. Further, the “Odds ratio (Allopurinol-ADRs/Tolerant), B*5801” value in the data set on HLA-B*5801 (31 ADR patients vs 98 tolerant patients) was determined as 315. In the data set on HLA-B*5801 (n = 31, carriers, number (%)), the “B*5801 frequency, Allopurinol-ADRs (severe ADRs)” value is reported as 31 (100%). Besides, the “B*5801 frequency, Allopurinol-tolerant” value in the data set on HLA-B*5801 (carriers, number (%)) was 16 (16.3%); with HLA-B*5801 (carriers, number (%), listed as Allopurinol), 16 (16.3%)^1. In addition, the “negative predictive value, absence of HLA-B*5801, allopurinol-induced ADRs” value in the data set with HLA-B*5801 (setting [3]) is on record as 100%. The “positive predictive value, presence of HLA-B*5801, allopurinol-induced ADRs” value with HLA-B*5801 (setting [3]) was 66%.

As for `NC(=O)N1c2ccccc2C2OC2c2ccccc21` (stereo not drawn) [CBZ 10, 11-epoxide], the “cross-reactivity of CBZ-reactive T cells to the compound” value (from here on “cross-reactivity”) in the data set on CBZ-reactive T cells is listed as “cross-reactive”.

Consider `CC1(C)S[C@@H]2[C@H](NC(=O)[C@H](N)c3ccc(O)cc3)C(=O)N2[C@H]1C(=O)O` [amoxicillin], for which the “number of HLA-B*1502-positive SJS/TEN patients who received the drug” value in the data set with HLA-B*1502 came out at 2.

On to “(S)-(−)-10-acetoxy-10,11- dihydro-5H-dibenzo/b,f/ azepine-5-carboxamide [Licarbazepine]”, for which the “cross-reactivity” value in the data set on CBZ-reactive T cells is “cross-reactive”.

As to `NC(=O)N1c2ccccc2CC(=O)c2ccccc21` [Oxcarbazepine, 5H-Dibenz[b,f]azepine-5-carboxamide, 10,11-dihydro-10-oxo], the “cross-reactivity” value in the data set on CBZ-reactive T cells is “cross-reactive”.

On to carbamazepine [CBZ], for which the “HLA-B*1502 frequency, CBZ-tolerant patients” value with HLA-B*1502 (N = 73, carriers, number (%)) is listed as 3 (4.1%). In the data set on HLA-B*1502 (Taiwanese patients, N = 42, carriers, number (%)), the “HLA-B*1502 frequency, patients with CBZ-induced SJS/TEN” value is listed as 42 (100%). The “HLA-B*1502 frequency, CBZ Milder ADRs” value in the data set on HLA-B*1502 (n = 16, carriers, number (%)) is 0 (0%). For the same compound, in the data set with HLA-B*1502 (text of Example 3), the “HLA-B*1502 carriers among SJS/TEN patients who received the drug” value is 100% and the “HLA-B*1502 carriers in the drug-tolerant group” value amounted to 4.1%. In addition, in the data set with HLA-B*1502 (tolerant group as control), the “negative predictive value of B*1502 for CBZ-induced SJS/TEN” value is given as 100%, the “positive predictive value of B*1502 for CBZ-induced SJS/TEN” value is reported as 96.0%, the “sensitivity of B*1502 for CBZ-induced SJS/TEN” value is 100% and the “specificity of B*1502 for CBZ-induced SJS/TEN” value turned out to be 95.89%. Moreover, the “Odds Ratio, B*1502, CBZ-induced SJS/TEN” value with HLA-B*1502 (vs Controls1: patients who had milder ADRs other than SJS, N = 142) was determined as 1194.47. In addition, in the data set with HLA-B*1502 (vs Controls2: general Taiwanese population, N = 94), the “Odds Ratio, B*1502, CBZ-induced SJS/TEN” value turned out to be 1383.2. For the same compound, in the data set with HLA-B*1502 (vs Controls3: CBZ-tolerant patients, N = 73), the “Odds Ratio, B*1502, CBZ-induced SJS/TEN” value is listed as 1712. Also, in the data set with HLA-B*4601 (10 out of 16), the “HLA-B*4601 carriers among patients with milder reactions to CBZ” value is listed as 62.5%. Moreover, in the data set on HLA-B*4601 (19/73), the “HLA-B*4601 carriers in the CBZ-tolerant group” value turned out to be 26%. For the same compound, the “odds ratio, B*4601, CBZ-induced milder cutaneous ADRs” value with HLA-B*4601 (vs CBZ-tolerant group) is recorded as 4.73. In the data set with HLA-Cw*0801, the “HLA-Cw*0801 frequency, CBZ SJS/TEN” value is 38 (90%) and the “HLA-Cw*0801 frequency, CBZ Tolerant” value was 10 (13.7%). For the same compound, in the data set on HLA-Cw*0806, the “HLA-Cw*0806 frequency, CBZ SJS/TEN” value was 3 (7.1%) and the “HLA-Cw*0806 frequency, CBZ Tolerant” value is on record as 0 (0%). Besides, in the data set with HLA-A*1101, the “HLA-A*1101 frequency, CBZ SJS/TEN” value is reported as 31 (73.8%). The “HLA-DRB1*1202 frequency, CBZ SJS/TEN” value in the data set on HLA-DRB1*1202 is recorded as 35 (83.3%). In [1] (human, in vivo), the Phenotype result is reported as “SJS”.

Regarding `CC1=C(CC(=O)O)c2cc(F)ccc2/C1=C\c1ccc([S+](C)[O-])cc1` (stereo not drawn) [Sulindac], in the data set with CBZ-reactive T cells, the “cross-reactivity” value is recorded as “not”.
